Measured values published in PubChem BioAssay (NCI).
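48-hour exposure; five concentrations; linearly interpolated endpoints. At the GI50, growth is halved. TGI is the concentration that stops growth completely.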

Legend:
Assay in all cases: NCI anticancer screen, dose series, 48 h
[1] = test system: NCI-H522 lung
[2] = test system: M14 melanoma
[3] = test system: HOP-92 NSCLC
[4] = test system: COLO 205 colon
[5] = test system: UACC-257 melanoma
[6] = test system: HCT-116 colon
[7] = test system: OVCAR-8 ovarian
[8] = test system: MOLT-4 leukemia
[9] = test system: NCI-H460 lung
[10] = test system: 786-0 renal
[11] = test system: EKVX NSCLC
[12] = test system: HT29 colon
[13] = test system: A549 NSCLC
[14] = test system: MDA-MB-231 breast
[15] = test system: K-562 leukemia
[16] = test system: U251 CNS
[17] = test system: KM12 colon
[18] = test system: DU-145 prostate
[19] = test system: UO-31 renal
[20] = test system: SN12C renal
[21] = test system: SW-620 colon
[22] = test system: MALME-3M melanoma
[23] = test system: NCI-H226 lung
[24] = test system: MDA-MB-468 breast
[25] = test system: NCI/ADR-RES ovarian
[26] = test system: SK-OV-3 ovarian
[27] = test system: MCF7 breast
[28] = test system: MDA-MB-435
[29] = test system: HCC-2998 colon
[30] = test system: HL-60(TB) leukemia
[31] = test system: SR leukemia
[32] = test system: IGROV1 ovarian
[33] = test system: HOP-62 NSCLC
[34] = test system: PC-3 prostate
[35] = test system: SK-MEL-2 melanoma
[36] = test system: BT-549 breast
[37] = test system: CAKI-1 renal
[38] = test system: CCRF-CEM leukemia
[39] = test system: ACHN renal
[40] = test system: SF-539 CNS
[41] = test system: NCI-H23 lung
[42] = test system: OVCAR-4 ovarian
[43] = test system: A498 renal
[44] = test system: TK-10 renal
[45] = test system: HCT-15 colon
[46] = test system: SF-295 CNS
[47] = test system: T-47D breast
[48] = test system: SK-MEL-5 melanoma
[49] = test system: RXF 393 renal
[50] = test system: RPMI-8226 leukemia
[51] = test system: HS 578T breast
[52] = test system: SK-MEL-28 melanoma
[53] = test system: LOX IMVI melanoma
[54] = test system: UACC-62 melanoma
[55] = test system: SNB-75 CNS
[56] = test system: SF-268 CNS
[57] = test system: OVCAR-3 ovarian
[58] = test system: OVCAR-5 ovarian
[59] = test system: SNB-19 CNS

Compound `O=C1Nc2cc(-c3ccc(NS(=O)(=O)c4ccc(C(F)(F)F)cc4)cc3)ccc2/C1=C/c1ccc[nH]1` has a GI50 [1] of 1440 nM, a TGI [1] of 3320 nM and a GI50 [2] of 3110 nM. For the same compound, the TGI [2] was 13000 nM, the GI50 [3] was 1100 nM and the TGI [3] was 3790 nM. The GI50 [4] was 2420 nM, the TGI [4] was 8250 nM and the GI50 [5] was 2390 nM. It also gave a TGI [5] of 7330 nM, a GI50 [6] of 1820 nM and a TGI [6] of 3460 nM. The GI50 [7] was 1910 nM, the TGI [7] was 4070 nM and the GI50 [8] was 2490 nM. It also gave a TGI [8] of 10800 nM, a GI50 [9] of 437 nM and a TGI [9] of 1770 nM. It also gave a GI50 [10] of 2550 nM, a TGI [10] of 6540 nM and a GI50 [11] of 123 nM. It also gave a TGI [11] of 4130 nM, a GI50 [12] of 2210 nM and a TGI [12] of 5140 nM. It also gave a GI50 [13] of 1310 nM, a TGI [13] of 2920 nM and a GI50 [14] of 2280 nM. It also gave a TGI [14] of 8290 nM, a GI50 [15] of 2480 nM and a TGI [15] of 11000 nM. The GI50 [16] was 1610 nM, the TGI [16] was 3120 nM and the GI50 [17] was 1940 nM. The TGI [17] was 7830 nM, the GI50 [18] was 1870 nM and the TGI [18] was 4000 nM. It also gave a GI50 [19] of 1510 nM, a TGI [19] of 10300 nM and a GI50 [20] of 1590 nM. The TGI [20] was 3170 nM, the GI50 [21] was 1870 nM and the TGI [21] was 3680 nM. For the same compound, the GI50 [22] was 3050 nM, the TGI [22] was 13600 nM and the GI50 [23] was 1100 nM. The TGI [23] was 6790 nM, the GI50 [24] was 31.1 nM and the TGI [24] was 309 nM. It also gave a GI50 [25] of 2590 nM, a TGI [25] of 8600 nM and a GI50 [26] of 2200 nM. For the same compound, the TGI [26] was 11600 nM, the GI50 [27] was 81.8 nM and the TGI [27] was 1470 nM. It also gave a GI50 [28] of 1860 nM, a TGI [28] of 3950 nM and a GI50 [29] of 1910 nM. It also gave a TGI [29] of 4920 nM, a GI50 [30] of 2900 nM and a TGI [30] of 10700 nM. For the same compound, the GI50 [31] was 1970 nM, the TGI [31] was 7000 nM and the GI50 [32] was 3310 nM. It also gave a TGI [32] of 15000 nM, a GI50 [33] of 1660 nM and a TGI [33] of 4700 nM. The GI50 [34] was 1570 nM, the TGI [34] was 4830 nM and the GI50 [35] was 3140 nM. For the same compound, the TGI [35] was 12200 nM, the GI50 [36] was 1960 nM and the TGI [36] was 5540 nM. It also gave a GI50 [37] of 2570 nM, a TGI [37] of 11100 nM and a GI50 [38] of 2270 nM. It also gave a TGI [38] of 6820 nM, a GI50 [39] of 2190 nM and a TGI [39] of 5310 nM. For the same compound, the GI50 [40] was 1430 nM, the TGI [40] was 3260 nM and the GI50 [41] was 1070 nM. For the same compound, the TGI [41] was 2830 nM, the GI50 [42] was 1100 nM and the TGI [42] was 7330 nM. The GI50 [43] was 1990 nM, the TGI [43] was 7780 nM and the GI50 [44] was 1270 nM. The TGI [44] was 6710 nM, the GI50 [45] was 1420 nM and the TGI [45] was 3260 nM. It also gave a GI50 [46] of 2040 nM, a TGI [46] of 4670 nM and a GI50 [47] of 230 nM. The TGI [47] was 3860 nM, the GI50 [48] was 4130 nM and the TGI [48] was 15600 nM. For the same compound, the GI50 [49] was 1960 nM, the TGI [49] was 4370 nM and the GI50 [50] was 1330 nM. The TGI [50] was 4250 nM, the GI50 [51] was 1960 nM and the TGI [51] was 10300 nM. It also gave a GI50 [52] of 2260 nM, a TGI [52] of 5680 nM and a GI50 [53] of 1630 nM. For the same compound, the TGI [53] was 2980 nM, the GI50 [54] was 2130 nM and the TGI [54] was 9730 nM. It also gave a GI50 [55] of 2290 nM, a TGI [55] of 13300 nM and a GI50 [56] of 1720 nM. The TGI [56] was 3860 nM, the GI50 [57] was 1430 nM and the TGI [57] was 2920 nM. It also gave a GI50 [58] of 1800 nM, a TGI [58] of 7060 nM and a GI50 [59] of 2530 nM. It also gave a TGI [59] of 11300 nM.
